The values below come from patent US9827222B2, “Treating or preventing nephrogenic diabetes insipidus” (Emory University, priority 2013, dated 2017).

For test [1], the system named is AQP2. In words: AQP2 phosphorylation in rat inner medulla. The source says:
Left: immune-precipitated 32P-AQP2; Right: phospho S256-AQP2.

Test [2] concerns UT-A1-mIMCD3 cells. In words: cAMP in UT-A1-mIMCD3 cells. The test is classed as cell-based. The following applies: 1 μM vasopressin (AVP) for 10 min; p<0.05. As for the experimental part:
FIG. 5 illustrates cAMP in UT-A1-mIMCD3 cells after treatment with 1 μM vasopressin (AVP) for 10 min, *=p<0.05.

Test [3] in a line: Urine osmolality in rats after IP metformin. The following applies: rats with normal water or water loaded for 1 week; 4 h after IP injection of metformin. Format: in vivo, rat. The text has this:
(§1) Rats with normal water (blue); water loaded for 1 week (red). Mice fed lithium for 14 days (green); V2R−/− mice (brown).

Test [4] is described as follows: Urine osmolality in lithium-treated mice. Format: in vivo. The following applies: mice fed lithium for 14 days; 4 h after IP injection of metformin.
Source text: as §1

Test [5] is described as follows: Urine osmolality in V2R knock-out mice (model of congenital NDI). The following applies: 4 h after IP injection of metformin. The test is classed as in vivo.
Source text: as §1
(§2) Preliminary data indicates AMPK phosphorylates both the UT-A1 and AQP2 proteins, both in vitro (FIG. 3) and in native rat IMCD suspensions (FIG. 4). […]. Thus, AMPK may mimic by which vasopressin increases urine concentrating ability.

For test [6], the system named is UT-A1. In words: UT-A1 phosphorylation in rat inner medullary tissue. The following applies: AMPK stimulation with metformin, p<0.05.
Source text: as §2

Test [7] relates to AQP2. The test can be described thus: Apical plasma membrane AQP2 in IMCDs of treated rats. To be noted: 4 h, 100 mg/kg IP. Format: in vivo, rat. The source says: 400×, HRP/Dab with hematoxylin stained nuclei.

Turning to `Cc1ccccc1C(=O)Nc1ccc(C(=O)N2CCCC(O)c3cc(Cl)ccc32)c(C)c1` (stereo not drawn) [tolvaptan], in test [1] (native rat IMCDs, 10^-7 M tolvaptan & 10^-4 M metformin, compared to metformin alone), the “AQP2 phosphorylation (immune-precipitated 32P-AQP2)” value was “increased”.
For the compound `NC(=O)CC[C@@H]1NC(=O)[C@H](Cc2ccccc2)NC(=O)[C@H](Cc2ccc(O)cc2)NC(=O)[C@@H](N)CSSC[C@@H](C(=O)N2CCC[C@H]2C(=O)N[C@@H](CCCN=C(N)N)C(=O)NCC(N)=O)NC(=O)[C@H](CC(N)=O)NC1=O` [Vasopressin, vasopressin], the cAMP entry in test [2] was “increases”.
For the compound `CN(C)C(=N)N=C(N)N` [metformin], the urine osmolality result in test [3], in test [4] and in test [5] was “increases” in each case. Also, the UT-A1 phosphorylation entry in test [6] is on record as “undergo phosphorylation”. Also, the pS256-AQP2 entry in test [1] (rat inner medulla, 10^-4 M metformin with V2R inhibited using 10^-7 M tolvaptan) is “increases”. Besides, in test [1] (rat inner medullary tissue, AMPK stimulation with metformin, p<0.05), the AQP2 phosphorylation result was “undergo phosphorylation”. In addition, the “apical plasma membrane AQP2” value in test [7] is recorded as “increases”.
